{
  "source": "patent US20240210412A1",
  "about": "“SULFONYL-TRIAZOLE COMPOUNDS USEFUL AS LIGANDS AND INHIBITORS OF PROSTAGLANDIN REDUCTASE 2” (University of Virginia Patent Foundation, priority 2021, published 2024)",
  "test_in_all_cases": "SILAC LC-MS ABPP",
  "conditions_in_all_cases": "25 μM 2 h, live DM93 cells",
  "key": {"[1]": {"target": "T1, Q01082 (Homo sapiens, UniProt Q01082)", "T1 construct": "performing SuTEx compound screening directly in cells; endogenous in cells; host or cells: DM93 cells (SILAC)", "T1 sequence (Q01082 whole entry)": "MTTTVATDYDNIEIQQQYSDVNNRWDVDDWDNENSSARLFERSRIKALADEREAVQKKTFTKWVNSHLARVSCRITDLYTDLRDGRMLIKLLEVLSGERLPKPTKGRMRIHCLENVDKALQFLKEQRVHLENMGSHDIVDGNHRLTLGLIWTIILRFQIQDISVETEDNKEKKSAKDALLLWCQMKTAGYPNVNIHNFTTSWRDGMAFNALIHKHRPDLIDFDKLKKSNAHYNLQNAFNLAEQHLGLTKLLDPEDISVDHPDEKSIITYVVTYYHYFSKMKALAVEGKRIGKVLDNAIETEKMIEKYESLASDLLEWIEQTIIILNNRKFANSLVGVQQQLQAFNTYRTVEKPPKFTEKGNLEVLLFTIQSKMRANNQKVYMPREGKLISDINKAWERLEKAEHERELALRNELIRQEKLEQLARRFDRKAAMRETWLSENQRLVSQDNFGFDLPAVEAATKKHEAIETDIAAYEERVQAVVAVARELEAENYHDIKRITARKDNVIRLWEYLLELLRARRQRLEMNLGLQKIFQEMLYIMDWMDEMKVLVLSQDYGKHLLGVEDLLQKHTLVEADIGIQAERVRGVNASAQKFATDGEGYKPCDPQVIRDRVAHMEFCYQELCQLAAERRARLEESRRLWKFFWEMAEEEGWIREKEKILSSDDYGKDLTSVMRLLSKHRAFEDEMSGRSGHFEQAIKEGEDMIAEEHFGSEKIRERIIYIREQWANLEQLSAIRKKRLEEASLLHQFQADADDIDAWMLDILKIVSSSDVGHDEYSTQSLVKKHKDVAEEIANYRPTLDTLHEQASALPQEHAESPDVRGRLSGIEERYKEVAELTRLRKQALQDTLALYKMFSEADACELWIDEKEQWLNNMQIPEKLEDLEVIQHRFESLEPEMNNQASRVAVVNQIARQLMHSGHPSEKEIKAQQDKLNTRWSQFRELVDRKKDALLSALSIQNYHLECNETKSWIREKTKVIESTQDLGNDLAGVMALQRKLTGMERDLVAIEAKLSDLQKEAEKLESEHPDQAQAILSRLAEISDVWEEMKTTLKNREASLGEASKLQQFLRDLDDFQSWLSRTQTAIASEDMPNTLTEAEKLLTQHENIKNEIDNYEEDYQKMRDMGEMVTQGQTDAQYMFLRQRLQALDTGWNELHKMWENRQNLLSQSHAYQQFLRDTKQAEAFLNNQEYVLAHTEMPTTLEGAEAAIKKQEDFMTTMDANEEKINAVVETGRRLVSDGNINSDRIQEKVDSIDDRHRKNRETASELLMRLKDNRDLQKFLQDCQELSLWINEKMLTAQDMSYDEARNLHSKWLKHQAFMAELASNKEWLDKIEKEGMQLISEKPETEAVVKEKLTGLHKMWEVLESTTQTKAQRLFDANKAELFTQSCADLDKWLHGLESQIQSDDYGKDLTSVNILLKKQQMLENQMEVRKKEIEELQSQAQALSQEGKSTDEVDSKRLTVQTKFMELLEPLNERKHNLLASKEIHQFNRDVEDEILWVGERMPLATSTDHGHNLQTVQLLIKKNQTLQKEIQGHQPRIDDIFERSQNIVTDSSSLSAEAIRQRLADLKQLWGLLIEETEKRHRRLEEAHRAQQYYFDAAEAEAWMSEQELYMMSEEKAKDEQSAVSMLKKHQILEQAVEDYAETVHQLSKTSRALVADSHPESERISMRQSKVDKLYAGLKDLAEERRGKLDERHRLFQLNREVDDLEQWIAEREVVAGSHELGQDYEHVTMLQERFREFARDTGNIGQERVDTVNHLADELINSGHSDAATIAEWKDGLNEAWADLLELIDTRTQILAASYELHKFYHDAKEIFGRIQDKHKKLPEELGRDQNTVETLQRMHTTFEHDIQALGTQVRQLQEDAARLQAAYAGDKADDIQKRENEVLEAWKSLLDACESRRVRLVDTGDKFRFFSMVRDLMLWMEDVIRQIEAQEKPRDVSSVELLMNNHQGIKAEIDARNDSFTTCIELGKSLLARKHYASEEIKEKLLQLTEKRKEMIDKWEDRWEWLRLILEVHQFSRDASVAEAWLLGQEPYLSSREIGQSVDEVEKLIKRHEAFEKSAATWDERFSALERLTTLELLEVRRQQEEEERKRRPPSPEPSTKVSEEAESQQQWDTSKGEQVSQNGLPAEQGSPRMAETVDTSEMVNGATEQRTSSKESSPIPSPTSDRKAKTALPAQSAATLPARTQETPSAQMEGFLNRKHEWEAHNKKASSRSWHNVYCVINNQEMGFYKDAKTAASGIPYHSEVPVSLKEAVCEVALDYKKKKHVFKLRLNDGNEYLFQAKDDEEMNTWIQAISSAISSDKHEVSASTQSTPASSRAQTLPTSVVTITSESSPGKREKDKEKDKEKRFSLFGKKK", "assay_type": "cell-based", "in_short": "(§1)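 Chemical proteomics in DM93 melanoma, light/heavy SILAC pairs. Vehicle versus 25 μM covalent sulfonyl-triazole for 2 h (37 °C) in serum-free medium was followed by 100 μM HHS-475 labelling for 2 h; tyrosine sites were identified and quantified by LC-MS/MS of avidin-enriched tryptic peptides.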"}, "[2]": {"system": "Q6IS14", "assay_type": "cell-based, human", "protocol": "(§2) Cells were grown to 90-95% confluence before being washed once with warm, sterile DPBS (1×, 5 mL), followed by addition of 10 mL of serum-free media (supplemented with 1% L-glutamine) containing either DMSO or SuTEx fragment (in DMSO) was added. Light cells were treated with DMSO vehicle while the heavy cells were treated with DMSO or SuTEx fragment (in DMSO) and incubated for 2 hrs. After 2 hrs, the cells were treated with SuTEx alkyne probe (HHS475, 10 μL of 1000× DMSO stock) and incubated for an additional 2 hrs. The media was aspirated and cells washed with cold PBS (5 mL) and harvested. Cells were spun at 500×g for 5 min at 4° C. followed by removal of supernatant. Pellets were resuspended in 1 mL of cold DPBS and spun at 1,400×g for 3 min at 4° C. followed by removal of supernatant. The cells were lysed in PBS by sonication and fractionated (100,000×g, 45 min, 4° C.).The light and heavy soluble fractions were diluted to 2.3 mg/mL in PBS and 432 μL were used for analysis (1 mg total protein). The probe-modified proteomes were conjugated to desthiobiotin-PEG3-azide (10 μl of 10 mM stock in DMSO; 200 μM final concentration) using TCEP (10 μl of fresh 50 mM stock in water, 1 mM final concentration), TBTA ligand (33 μl of a 1.7 mM 4:1 t-butanol/DMSO stock, 100 μM final concentration) and CuSO4 (10 μl of 50 mM stock, 1 mM final concentration). Samples were vortexed to mix and incubated for 1 hr at room temperature. The heavy and light proteomes were mixed 1:1 and the subsequent steps, including LC-MS/MS data analysis, were performed as previously described^[8a].\n(§3) Coupling cell-based screens with chemical proteomics can facilitate the identification of target protein and binding sites that engage and are irreversibly modified by covalent ligands^[12]. In these assays, covalent ligands block SuTEx activity-based probe (ABP) labeling at protein sites, and the competition of probe labeling can be used to quantify potency and selectivity across the proteome^[10a]. To facilitate quantitative chemical proteomics, DM93 melanoma cells were cultured using stable isotopic labeling by amino acids in cell culture (SILAC)^[13]. Cells cultured in “light” media were treated with dimethyl sulfoxide (DMSO) vehicle while cells cultured in “heavy” media were treated with SuTEx ligand (25 μM, 2 hours, 37° C.). Next, cells were treated with HHS-475 probe (100 μM, 2 hours, 37° C.) followed by lysis and processing of proteomes for analysis. Probe-modified proteins from the soluble fraction were conjugated to a desthiobiotin-azide tag by copper-catalyzed azide-alkyne cycloaddition (CuAAC)^[14] followed by mixing of the light and heavy proteomes. The combined proteomes were digested with trypsin protease to produce probe-modified peptides, followed by enrichment and purification by avidin affinity chromatography. Probe-modified peptides were resolved, identified, and quantified by high-resolution liquid chromatography-tandem mass spectrometry (LC-MS/MS). Resultant data were analyzed as previously described^[8a, 10a]. Table 2, below, lists sites of modification targeted by sulfonyl-triazole compounds HHS-0101, HHS-0201, HHS-0301, HHS-0401, and HHS-0701. The format of the table is as follows: protein Uniprot accession number (see uniprot.org); tyrosine site (amino acid position) modified; treatment (sulfonyl-triazole compound identification number, followed by Y (where if multiple compounds modify the same site, the compounds are separated by vertical lines)."}, "[3]": {"system": "Q5VTE0", "assay_type": "cell-based, human", "protocol": "as §2, §3"}, "[4]": {"system": "A6NKT7", "assay_type": "cell-based, human", "protocol": "as §2, §3"}, "[5]": {"target": "T2, Q00341 (Homo sapiens, UniProt Q00341)", "T2 construct": "performing SuTEx compound screening directly in cells; endogenous in cells; host or cells: DM93 cells (SILAC)", "T2 sequence (Q00341 whole entry)": "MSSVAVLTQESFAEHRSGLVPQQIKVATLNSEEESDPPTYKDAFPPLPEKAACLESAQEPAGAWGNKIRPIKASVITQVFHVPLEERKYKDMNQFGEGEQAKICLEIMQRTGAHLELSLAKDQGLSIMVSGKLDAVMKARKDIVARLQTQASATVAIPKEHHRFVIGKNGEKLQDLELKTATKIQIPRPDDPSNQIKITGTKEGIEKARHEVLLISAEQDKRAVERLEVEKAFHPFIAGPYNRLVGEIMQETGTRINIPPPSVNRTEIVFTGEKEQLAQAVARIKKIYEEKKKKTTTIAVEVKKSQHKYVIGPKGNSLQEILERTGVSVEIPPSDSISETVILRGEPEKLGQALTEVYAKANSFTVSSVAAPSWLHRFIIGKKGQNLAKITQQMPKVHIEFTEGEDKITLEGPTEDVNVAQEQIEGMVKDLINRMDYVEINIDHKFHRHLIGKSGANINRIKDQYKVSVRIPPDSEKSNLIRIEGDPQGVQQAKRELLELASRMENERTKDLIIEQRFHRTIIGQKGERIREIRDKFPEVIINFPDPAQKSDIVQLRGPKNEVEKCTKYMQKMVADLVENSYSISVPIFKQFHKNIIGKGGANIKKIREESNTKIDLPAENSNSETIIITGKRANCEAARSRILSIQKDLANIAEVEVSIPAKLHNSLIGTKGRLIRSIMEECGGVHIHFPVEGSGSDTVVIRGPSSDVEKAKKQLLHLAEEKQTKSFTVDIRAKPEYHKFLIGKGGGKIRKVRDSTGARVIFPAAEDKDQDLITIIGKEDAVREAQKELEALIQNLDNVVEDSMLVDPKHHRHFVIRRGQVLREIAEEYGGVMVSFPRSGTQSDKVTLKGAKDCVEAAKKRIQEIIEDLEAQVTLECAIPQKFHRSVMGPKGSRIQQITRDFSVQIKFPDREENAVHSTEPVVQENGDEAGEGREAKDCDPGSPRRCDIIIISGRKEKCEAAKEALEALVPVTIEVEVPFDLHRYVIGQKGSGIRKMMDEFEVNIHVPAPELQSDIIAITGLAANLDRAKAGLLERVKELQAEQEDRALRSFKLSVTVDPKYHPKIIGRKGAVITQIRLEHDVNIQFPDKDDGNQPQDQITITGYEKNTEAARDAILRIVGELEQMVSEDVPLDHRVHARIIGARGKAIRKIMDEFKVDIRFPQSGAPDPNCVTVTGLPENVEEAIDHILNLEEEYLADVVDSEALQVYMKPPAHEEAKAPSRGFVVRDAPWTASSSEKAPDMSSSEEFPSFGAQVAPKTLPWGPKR", "assay_type": "cell-based", "in_short": "as §1"}, "[6]": {"target": "T3, Q9HCE5 (Homo sapiens, UniProt Q9HCE5)", "T3 construct": "endogenous in cells; host or cells: DM93 cells (SILAC), treated live; soluble proteome analysed", "T3 sequence (Q9HCE5 whole entry)": "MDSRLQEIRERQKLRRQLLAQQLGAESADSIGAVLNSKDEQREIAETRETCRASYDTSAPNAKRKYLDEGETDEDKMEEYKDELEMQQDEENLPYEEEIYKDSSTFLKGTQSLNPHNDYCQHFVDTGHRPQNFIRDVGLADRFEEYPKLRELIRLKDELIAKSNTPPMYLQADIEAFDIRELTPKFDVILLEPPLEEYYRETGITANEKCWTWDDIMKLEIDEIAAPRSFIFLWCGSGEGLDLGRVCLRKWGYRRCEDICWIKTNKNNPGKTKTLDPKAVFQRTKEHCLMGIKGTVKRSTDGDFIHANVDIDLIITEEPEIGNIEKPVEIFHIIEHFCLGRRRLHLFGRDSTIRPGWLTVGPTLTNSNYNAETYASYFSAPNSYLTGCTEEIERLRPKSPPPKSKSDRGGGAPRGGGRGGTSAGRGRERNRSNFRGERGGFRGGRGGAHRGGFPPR", "T3 sequence (Q86U44 whole entry partner)": "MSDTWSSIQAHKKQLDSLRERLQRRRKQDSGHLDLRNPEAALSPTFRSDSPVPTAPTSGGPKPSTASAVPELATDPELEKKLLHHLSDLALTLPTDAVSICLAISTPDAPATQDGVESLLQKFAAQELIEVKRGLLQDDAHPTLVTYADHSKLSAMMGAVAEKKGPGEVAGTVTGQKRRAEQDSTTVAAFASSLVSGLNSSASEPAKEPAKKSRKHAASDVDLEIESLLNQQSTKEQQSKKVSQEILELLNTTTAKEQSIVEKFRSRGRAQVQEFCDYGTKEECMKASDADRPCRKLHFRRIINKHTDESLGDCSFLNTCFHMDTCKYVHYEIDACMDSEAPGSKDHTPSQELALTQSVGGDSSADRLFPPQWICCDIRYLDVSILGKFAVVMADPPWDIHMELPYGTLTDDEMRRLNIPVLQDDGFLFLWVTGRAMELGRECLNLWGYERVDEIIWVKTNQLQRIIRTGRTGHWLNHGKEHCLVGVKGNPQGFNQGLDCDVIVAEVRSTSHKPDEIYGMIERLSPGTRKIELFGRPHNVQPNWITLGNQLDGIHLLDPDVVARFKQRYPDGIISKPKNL", "assay_type": "cell-based", "in_short": "as §1"}, "[7]": {"system": "Q8NFI4", "assay_type": "cell-based, human", "protocol": "as §2, §3"}, "[8]": {"target": "T4, P25205 (Homo sapiens, UniProt P25205)", "T4 construct": "Probe-modified proteins from the soluble fraction were conjugated to a desthiobiotin-azide tag; endogenous in cells; host or cells: DM93 (SILAC)", "T4 sequence (P25205 1-808)": "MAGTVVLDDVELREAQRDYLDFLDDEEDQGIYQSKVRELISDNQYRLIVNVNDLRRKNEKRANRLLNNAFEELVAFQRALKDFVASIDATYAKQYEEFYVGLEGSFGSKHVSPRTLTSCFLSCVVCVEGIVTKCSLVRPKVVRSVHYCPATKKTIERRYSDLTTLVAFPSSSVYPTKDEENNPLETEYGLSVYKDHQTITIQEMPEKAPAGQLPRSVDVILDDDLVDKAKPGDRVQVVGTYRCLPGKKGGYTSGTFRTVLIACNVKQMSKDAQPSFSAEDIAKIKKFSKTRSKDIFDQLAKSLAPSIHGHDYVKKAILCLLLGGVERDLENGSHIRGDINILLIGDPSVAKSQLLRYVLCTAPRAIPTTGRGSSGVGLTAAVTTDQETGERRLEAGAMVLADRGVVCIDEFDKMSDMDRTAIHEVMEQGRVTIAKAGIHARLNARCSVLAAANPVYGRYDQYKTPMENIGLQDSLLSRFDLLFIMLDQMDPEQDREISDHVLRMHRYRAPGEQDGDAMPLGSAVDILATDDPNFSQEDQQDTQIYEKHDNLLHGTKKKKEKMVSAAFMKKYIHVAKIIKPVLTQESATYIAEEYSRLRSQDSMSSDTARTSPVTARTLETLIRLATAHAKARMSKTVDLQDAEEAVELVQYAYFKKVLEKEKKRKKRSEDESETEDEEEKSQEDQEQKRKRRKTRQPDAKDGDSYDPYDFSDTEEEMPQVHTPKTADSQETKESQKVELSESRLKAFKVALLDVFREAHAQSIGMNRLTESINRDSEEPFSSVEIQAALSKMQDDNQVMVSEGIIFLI", "assay_type": "cell-based", "in_short": "as §1"}, "[9]": {"system": "Q9Y5K3", "assay_type": "cell-based, human", "protocol": "as §2, §3"}, "[10]": {"system": "Q8N0Y7", "assay_type": "cell-based, human", "protocol": "as §2, §3"}, "[11]": {"system": "O15523", "assay_type": "cell-based, human", "protocol": "as §2, §3"}},
  "data": [
    {"smiles": "O=C(NC1CC1)c1ccc(S(=O)(=O)n2cncn2)cc1", "note": "[HHS-0101, 4-((1H-1,2,4-triazol-1-yl)sulfonyl)-N-cyclopropylbenzamide]", "values": [
      {"measurement": "liganded tyrosine site 777", "setting": "[1]", "value": "HHS0101.Y|HHS0201.Y|HHS0401.Y (tyrosine sites that showed >80% reductions (SR >5) in probe labeling in cells treated with compounds (liganded sites))"},
      {"measurement": "liganded tyrosine site 127", "setting": "[2]", "value": "HHS0101.Y|HHS0201.Y|HHS0701.Y (tyrosine sites that showed >80% reductions (SR >5) in probe labeling in cells treated with compounds (liganded sites))"},
      {"measurement": "liganded tyrosine site 183", "setting": "[3]", "value": "HHS0101.Y (tyrosine sites that showed >80% reductions (SR >5) in probe labeling in cells treated with compounds (liganded sites))"},
      {"measurement": "liganded tyrosine site 1008", "setting": "[4]", "value": "HHS0101.Y (tyrosine sites that showed >80% reductions (SR >5) in probe labeling in cells treated with compounds (liganded sites))"}
    ]},
    {"smiles": "O=C(NCC1CC1)c1ccc(S(=O)(=O)n2cncn2)cc1", "note": "[HHS-0201, 4-((1H-1,2,4-triazol-1-yl)sulfonyl)-N-(cyclopropylmethyl)benzamide]", "values": [
      {"measurement": "liganded tyrosine site 582", "setting": "[5]", "value": "HHS0201.Y (tyrosine sites that showed >80% reductions (SR >5) in probe labeling in cells treated with compounds (liganded sites))"},
      {"measurement": "liganded tyrosine site 169", "setting": "[6]", "value": "HHS0201.Y|HHS0301.Y (tyrosine sites that showed >80% reductions (SR >5) in probe labeling in cells treated with compounds (liganded sites))"},
      {"measurement": "liganded tyrosine site 213", "setting": "[7]", "value": "HHS0201.Y (tyrosine sites that showed >80% reductions (SR >5) in probe labeling in cells treated with compounds (liganded sites))"}
    ]},
    {"smiles": "O=C(NC1CCCCC1)c1ccc(S(=O)(=O)n2cncn2)cc1", "note": "[HHS-0301, 4-((1H-1,2,4-triazol-1-yl)sulfonyl)-N-cyclohexylbenzamide]", "values": [
      {"measurement": "liganded tyrosine site 147", "setting": "[8]", "value": "HHS0301.Y (tyrosine sites that showed >80% reductions (SR >5) in probe labeling in cells treated with compounds (liganded sites))"},
      {"measurement": "liganded tyrosine site 173", "setting": "[9]", "value": "HHS0301.Y (tyrosine sites that showed >80% reductions (SR >5) in probe labeling in cells treated with compounds (liganded sites))"}
    ]},
    {"smiles": "O=C(NCc1ccccc1)c1ccc(S(=O)(=O)n2cncn2)cc1", "note": "[HHS-0401, 4-((1H-1,2,4-triazol-1-yl)sulfonyl)-N-benzylbenzamide]", "values": [
      {"measurement": "liganded tyrosine site 119", "setting": "[10]", "value": "HHS0401.Y (tyrosine sites that showed >80% reductions (SR >5) in probe labeling in cells treated with compounds (liganded sites))"},
      {"measurement": "liganded tyrosine site 264", "setting": "[11]", "value": "HHS0401.Y (tyrosine sites that showed >80% reductions (SR >5) in probe labeling in cells treated with compounds (liganded sites))"}
    ]},
    {"smiles": "O=C(c1ccc(S(=O)(=O)n2cncn2)cc1)N1CCC(c2ccccc2)CC1", "note": "[HHS-0701, (4-((1H-1,2,4-triazol-1-yl)sulfonyl)phenyl)(4-phenylpiperidin-1-yl)methanone]", "values": [
      {"measurement": "liganded tyrosine site 159", "setting": "[8]", "value": "HHS0701.Y (tyrosine sites that showed >80% reductions (SR >5) in probe labeling in cells treated with compounds (liganded sites))"},
      {"measurement": "liganded tyrosine site 188", "setting": "[8]", "value": "HHS0701.Y (tyrosine sites that showed >80% reductions (SR >5) in probe labeling in cells treated with compounds (liganded sites))"}
    ]}
  ]
}
